According to patent publication US20260116845A1, “LIPIDS AND COMPOSITIONS THEREOF” (Kernal Biologics, Inc., priority 2023, published 2026):

Assays:
Format in all cases: cell-based
MC38.K Cell Line = assay: Transfection of MC38.K Cell Line with FLuc mRNA LNPs (ONE-Glo EX luciferase signal); conditions: 200 ng Fluc mRNA-LNP, 24 hours; for Total Luciferin Signal (RLU) In Vitro - MC38.K: Table 4
Experimental: (§1) mRNA encapsulated lipid nanoparticles (mRNA LNPs) were formulated using microfluidic mixing with a PNI Ignite instrument. Briefly, lipids (ionizable: structural: helper: PEG) were dissolved in ethanol and mixed with and aqueous solution of mRNA. These mRNA-loaded dispersions were then neutralized via a buffer exchange with a pre-determined buffer overnight. Afterwards, formed LNPs were concentrated with Amicon filter centrifugation, filtered, concentration of mRNA determined through a ribogreen assay, and frozen at −80° C. until use.
(§2) Cell lines were grown to confluence in T75 flasks using complete media of DMEM-F12 for AML12 and DMEM for both B16F10 and MC38.K. Cells were plated in a white 96 flat-well plate (AML12=20,000 cells/well, B16F10 and MC38.K=5,000 cells/well) with their respected media. Lipid nanoparticles were first diluted to 50 μg/ml using Opti-MEM and pre-incubated with mouse serum for 30 minutes to give an LNP concentration of 8 μg/ml. Cell media was replaced with Opti-MEM and LNPs were added to cells (200 ng of mRNA-LNP), placed back in the incubator, and allowed to transfect for 24 hours. Afterwards, 100 μl of Promega's ONE-Glo™ EX Luciferase Assay System or Promega's CellTiter-Glo® Luminescent Cell Viability Assay was added and mixed in their respective wells, followed by recording luminescence signals on a Thermo Scientific Varioskan LUX multimode microplate reader. The results are shown in FIG. 1, FIG. 2, FIG. 3, FIG. 4, FIG. 5, FIG. 6, FIG. 10, FIG. 11, and FIG. 21.

AML12 Cell Line = assay: Transfection of AML12 Cell Line with FLuc mRNA LNPs (ONE-Glo EX luciferase signal); conditions: 200 ng Fluc mRNA-LNP, 24 hours
Experimental: as §1, §2

B16F10 Cell Line = assay: Transfection of B16F10 Cell Line with FLuc mRNA LNPs (ONE-Glo EX luciferase signal); conditions: 200 ng Fluc mRNA-LNP, 24 hours
Experimental: as §1, §2

Row | Structure (SMILES) | Total Luciferin Signal (RLU) In Vitro - MC38.K (MC38.K Cell Line) | Total Luciferin Signal (RLU) In Vitro - AML12 (AML12 Cell Line; Table 4) | Total Luciferin Signal (RLU) In Vitro - B16F10 (B16F10 Cell Line; Table 4) | Total Luciferin Signal (RLU) In Vitro-MC38 (MC38.K Cell Line; Table 5) | Total Luciferin Signal (RLU) In Vitro - AML12 (AML12 Cell Line; Table 5) | Total Luciferin Signal (RLU) In Vitro - B16F10 (B16F10 Cell Line; Table 5)
1 | CCCCCCCCC(CCCCCCCC)C(=O)OCCCCCCCN(CCCCCOC(=O)CCCCCCCCC(C)C)CCOC(=O)CCCN(C)C [Compound 13] | 7.83E+05 RLU | 1.44E+06 RLU | 2.12E+06 RLU |  |  | 
2 | CCCCCCCCC(CCCCCCCF)OC(=O)CCCCCCCN(CCO)CCCCCC(=O)OCCCCCCCCC(C)C (stereo not drawn) [Compound 28] | 5.09E+05 RLU | 1.65E+05 RLU | 2.34E+05 RLU |  |  | 
3 | CCCCCCCCC(CCCCCCCCF)OC(=O)CCCCCCCN(CCCCCCC(C)C(=O)OCCCCCCCCC(C)C)CC(C)CO (stereo not drawn) [Compound 75, 9-methyldecyl 8-((8-((1-fluoroheptadecan-9-yl)oxy)-8-oxooctyl)(3-hydroxy-2-methylpropyl)amino)-2-methyloctanoate] | 4.51E+04 RLU | 1.59E+04 RLU | 2.15E+04 RLU |  |  | 
4 | CCCCCCCCCC(=O)OCCCCCCCN(CCO)CCCCCCCOC(=O)CCCCCCCCC [Compound 47] | 5.18E+04 RLU | 3.52E+04 RLU | 3.88E+04 RLU |  |  | 
5 | CCCCCCCCC(CCCCCCCC)OC(=O)CCCCCCCN(CCCCCCCC(=O)OCCCCCCCCF)CCOC(=O)CCCN(C)C [Compound 22] | 2.65E+06 RLU | 1.24E+05 RLU | 5.04E+05 RLU |  |  | 
6 | CCCCCCCCC(CCCCCCCC)C(=O)OCCCCCCCN(CCCCCC(=O)OCCCCCCCCC(C)C)CCOC(=O)CCCN(C)C [Compound 7] | 1.35E+06 RLU | 1.48E+06 RLU | 1.11E+06 RLU |  |  | 
7 | CCCCCCCCCOC(=O)CCCCCCCN(CCCCO)CCCCCCCC(=O)OCC(CCCCCCCC)CCCCCCCCF (stereo not drawn) [Compound 77, 10-fluoro-2-octyldecyl 8-((4-hydroxybutyl)(8-(nonyloxy)-8-oxooctyl)amino)octanoate] | 3.24E+07 RLU | 5.38E+06 RLU | 7.80E+06 RLU |  |  | 
8 | CC(C)CCCCCCCCC(=O)OCCCCCCCN(CCO)CCCCCCCOC(=O)CCCCCCCCC(C)C [Compound 48] | 2.17E+06 RLU | 3.31E+06 RLU | 4.45E+06 RLU |  |  | 
9 | CCCCCCCCCOC(=O)CCCCCCCN(CCCCO)CCCCCCCCOC(=O)C(CCCC)CCCCCCF (stereo not drawn) [Compound 81, 8-((4-hydroxybutyl)(8-(nonyloxy)-8-oxooctyl)amino)octyl 2-butyl-8-fluorooctanoate] | 2.47E+06 RLU | 4.91E+04 RLU | 5.85E+04 RLU |  |  | 
10 | CCCCCCCCC(CCCCCCCC)OC(=O)CCCCCCCN(CCO)CCCCCCCC(=O)OC(CCCCCCCC)CCCCCCCC [Compound 44] | 3.17E+06 RLU | 8.87E+05 RLU | 1.26E+06 RLU |  |  | 
11 | CCCCCCCCC(CCCCCCCC)OC(=O)CCCCCCCN(CCO)CCCCCCCC(=O)OCCCCCCCCF [Compound 21] | 1.16E+06 RLU | 4.09E+05 RLU | 1.03E+05 RLU |  |  | 
12 | CCCCCCCCC(CCCCCCCC)OC(=O)CCCCCN(CCO)CCCCCC(=O)OC(CCCCCCCC)CCCCCCCC [Compound 51] | 1.70E+06 RLU | 1.01E+06 RLU | 1.28E+06 RLU |  |  | 
13 | CCCCCCC(CCCCCCCCF)COC(=O)CCCCCCCN(CCO)CCCCCCC(C)C(=O)OCCCCCCCCC(C)C (stereo not drawn) [Compound 73, 9-methyldecyl 8-((8-((10-fluoro-2-hexyldecyl)oxy)-8-oxooctyl)(2-hydroxyethyl)amino)-2-methyloctanoate] | 1.77E+07 RLU | 2.93E+06 RLU | 7.08E+06 RLU |  |  | 
14 | CCCCCCCCC(CCCCCCCC)OC(=O)CCCCCCCN(CCCCCCCC(=O)OCCCCCCCCC(C)C)CCOC(=O)CCCN(C)CCO [Compound 5] | 4.09E+06 RLU | 2.04E+05 RLU | 1.79E+06 RLU |  |  | 
15 | CCCCCCCCCOC(=O)CCCCCN(CCO)CCCCCC(=O)OCCCCCCCCC [Compound 50] | 1.85E+04 RLU | 1.54E+04 RLU | 1.30E+04 RLU |  |  | 
16 | CCCCCCCCC(CCCCCCCC)C(=O)OCCCCCCCN(CCO)CCCCCCCOC(=O)C(CCCCCCCC)CCCCCCCC [Compound 46] | 4.59E+06 RLU | 1.30E+06 RLU | 1.48E+06 RLU |  |  | 
17 | CCCCCCCCCOC(=O)C(C)CCCCCCN(CCCCO)CCCCCCCC(=O)OCC(CCCCCC)CCCCCCCCF (stereo not drawn) [Compound 85, nonyl 8-((8-((10-fluoro-2-hexyldecyl)oxy)-8-oxooctyl)(4-hydroxybutyl)amino)-2-methyloctanoate] | 6.32E+07 RLU | 7.47E+06 RLU | 1.03E+07 RLU |  |  | 
18 | CCCCCCCCC(CCCCCCCCF)C(=O)OCCCCCCCN(CCO)CCCCCCCOC(=O)C(C)CCCCCCCC(C)C (stereo not drawn) [Compound 87, 7-((7-((10-fluoro-2-octyldecanoyl)oxy)heptyl)(2-hydroxyethyl)amino)heptyl 2,10-dimethylundecanoate] | 6.61E+06 RLU | 1.52E+06 RLU | 3.16E+06 RLU |  |  | 
19 | CCCCCCCCCOC(=O)CCCCCCCN(CCO)CCCCCCCC(=O)OC(CCCCCCCC)CCCCCCCCCl (stereo not drawn) [Compound 83, 1-chloroheptadecan-9-yl 8-((2-hydroxyethyl)(8-(nonyloxy)-8-oxooctyl)amino)octanoate] | 2.14E+06 RLU | 1.85E+05 RLU | 4.41E+05 RLU |  |  | 
20 | CCCCCCCCCOC(=O)CCCCCCCN(CCO)CCCCCCCCOC(=O)C(CCCC)CCCCCCF (stereo not drawn) [Compound 82, 8-((2-hydroxyethyl)(8-(nonyloxy)-8-oxooctyl)amino)octyl 2-butyl-8-fluorooctanoate] | 6.18E+04 RLU | 1.48E+04 RLU | 1.70E+04 RLU |  |  | 
21 | CCCCCCCCC(CCCCCCCC)OC(=O)CCCCCN(CCCCCC(=O)OCCCCCCCCCCC(C)C)CCOC(=O)CCCN(C)C [Compound 17] | 1.15E+06 RLU | 6.34E+05 RLU | 2.64E+06 RLU |  |  | 
22 | CCCCCCC(CCCCCCCCF)COC(=O)CCCCCCCN(CCCCO)CCCCCCC(C)C(=O)OCCCCCCCCC(C)C (stereo not drawn) [Compound 86, 9-methyldecyl 8-((8-((10-fluoro-2-hexyldecyl)oxy)-8-oxooctyl)(4-hydroxybutyl)amino)-2-methyloctanoate] | 3.80E+07 RLU | 3.99E+06 RLU | 7.58E+06 RLU |  |  | 
23 | CCCCCCCCCCCOC(=O)CCCCCN(CCO)CCCCCC(=O)OCCCCCCCCCCC [Compound 49] | 2.99E+04 RLU | 1.75E+04 RLU | 9.79E+03 RLU |  |  | 
24 | CCCCC(CCCCCCF)C(=O)OCCCCCCCCN(CCO)CCCCCCC(C)C(=O)OCCCCCCCCC(C)C (stereo not drawn) [Compound 79, 8-((2-hydroxyethyl)(7-methyl-8-((9-methyldecyl)oxy)-8-oxooctyl)amino)octyl 2-butyl-8-fluorooctanoate] | 1.65E+07 RLU | 7.26E+05 RLU | 1.84E+06 RLU |  |  | 
25 | CCCCCCCCCOC(=O)C(C)CCCCCCN(CCO)CCCCCCCC(=O)OCC(CCCCCC)CCCCCCCCF (stereo not drawn) [Compound 78, nonyl 8-((8-((10-fluoro-2-hexyldecyl)oxy)-8-oxooctyl)(2-hydroxyethyl)amino)-2-methyloctanoate] | 2.21E+07 RLU | 2.42E+06 RLU | 6.65E+06 RLU |  |  | 
26 | CCCCCCCC/C=C\CCCCCCC1CN(CCO)CC(CCCCCC(=O)OC(CCCCCCCC)CCCCCCC(C)C)O1 (stereo not drawn) [Compound 98, 2-methylheptadecan-9-yl (Z)-6-(6-(hexadec-7-en-1-yl)-4-(2-hydroxyethyl)morpholin-2-yl)hexanoate] |  |  |  | 7.95E+04 RLU | 4.38E+04 RLU | 1.27E+05 RLU
